Literature values in US20010039006A1, “Toxicity typing using embryoid bodies” (priority 1998, published 2001).
Where two headings read alike, the source gives them in different places.

Legend:
[1] = for liver toxicity: known toxicity of the marketed drug
[2] = human, in vivo
[3] = in vivo
[4] = human, in vivo; remark: listed apart in the source

SMILES: CC(=O)Nc1ccc(O)cc1 [acetominophen]
- TOXICITIES LIVER ([1]; human, in vivo): +

SMILES: c1ccc2c(c1)cc1ccc3cccc4ccc2c1c34 [benzo(a)pyrene]
- TOXICITIES CV [2]: +

SMILES: N.N.O=C([O-])C1(C(=O)[O-])CCC1.[Pt+2] [carboplatin]
- TOXICITIES GI [3]: +

SMILES: CCOC(=O)C(C)(C)Oc1ccc(Cl)cc1 [clofibrate]
- TOXICITIES LIVER ([1]; Table 1): ntc

SMILES: N=C(N)NCCCCCCC(=O)NC(O)C(=O)NCCCCNCCCN (stereo not drawn) [deoxyspergualin]
- TOXICITIES CV [2]: +

SMILES: CCC(=O)O[C@H]1[C@H](O[C@@H]2[C@@H](C)[C@H](O[C@H]3C[C@@](C)(OC)[C@@H](O)[C@H](C)O3)[C@@H](C)C(=O)O[C@H](CC)[C@@](C)(O)[C@H](O)[C@@H](C)C(=O)[C@H](C)C[C@@]2(C)O)O[C@H](C)C[C@@H]1N(C)C [erythromycin estolate]
- liver toxicity [1]: known liver toxicity

SMILES: COc1nc(C(Cl)(Cl)Cl)c(Cl)c(OC)c1Cl [penclomedine]
- TOXICITIES CNS [4]: +

SMILES: CN(CCOc1ccc(CC2SC(=O)NC2=O)cc1)c1ccccn1 (stereo not drawn) [rosiglitazone]
- TOXICITIES LIVER ([1]; Table 1): ntc

SMILES: Cc1c(C)c2c(c(C)c1O)CCC(C)(COc1ccc(CC3SC(=O)NC3=O)cc1)O2 (stereo not drawn) [troglitazone]
- liver toxicity [1]: rare but severe liver toxicity
